US6905699B2, “Insecticides” (Sumitomo Chemical Company, Limited, priority 2000, dated 2005)

Test system: Silverleaf Whitefly (Bemisia argentifolii)
Test: Insecticidal test against silverleaf whitefly on cabbage seedlings (spray)
Assay type: in vivo
Conditions: spray on infested cabbage seedlings, total of adults and larvae, 9 days after treatment
Excerpt: Insecticidal Test Against Silverleaf Whitefly (Bemisia argentifolii)
To each of an aqueous dilution in a designated concentration of an emulsifiable concentrate of Compound A (commercial name: Lano EC, manufactured by Sumitomo Chemical Co., Ltd.) and a flowable of Compound B (commercial name: Sanmite flowable, manufactured by Nissan Chemical Industries, Ltd.), and a mixture of the emulsifiable concentrate of Compound A in a designated concentration with the flowable of Compound B in a designated concentration, a spreading agent (Shin-Rino, manufactured by Nihon Nohyaku Co., Ltd.) was added to make the amount of the spreading agent to 1/3000 of volume to prepare a spray solution.
Cabbage seedlings planted in 3 ounces plastic cup were placed in a net cage containing many living silverleaf whiteflies for 24 hours, so that silverleaf whiteflies became parasitic on the cabbage seedlings. Each of the above-prepared test solutions was sprayed with a spray gun. The number of silverleaf whiteflies (i.e., the total number of adults and larvae) surviving on the cabbage seedlings was examined just before and after 9 days from the treatment.

SMILES | Number of surviving insects after 9 days (50 ppm active ingredient) | Number of surviving insects after 9 days (12.5 ppm active ingredient) | Number of surviving insects after 9 days (100 ppm active ingredient)
CC(COc1ccc(Oc2ccccc2)cc1)Oc1ccccn1 (stereo not shown) [Compound A, 4-phenoxyphenyl 2-(2-pyridyloxy)propyl ether] | 30 | – | –
CC(C)(C)c1ccc(CSc2cnn(C(C)(C)C)c(=O)c2Cl)cc1 [Compound B, 2-tert-butyl-5-(4-tert-butylbenzylthio)-4-chloropyridazin-3(2H)-one] | 10 | 155 | 13
